Results from US11266753B2, “2-[5-(imidazol-1-ylmethyl)pyridin-3-yl]benzimtdazole derivative compound, and medicament including same” (Nihon Medi-Physics Co., Ltd., priority 2017, dated 2022).

What was measured:
[1] = test system: lesion region having an aldosterone-producing tumor site (human adrenal section); assay: In vitro autoradiography using human adrenal tumor: binding ability to lesion region; conditions: for B2, binding ability to a lesion region, ratio to reference compound: relative to [123I]IMTO = 1, human plasma, 37° C., 10 minutes; for concentration shown at the lesion sites on autoradiograms (FIG. 1): Samples 1 to 6, compared with Compound [18F]100
Protocol: (§1) By using a frozen human adrenal tissue specimen containing a lesion region having an aldosterone-producing tumor site, and a normal region in an adjacent part to the lesion region, in vitro autoradiography was performed. Specifically, a slide glass on which a section prepared by embedding the specimen in an embedding medium for preparing a frozen tissue section (Tissue-Tek O.C.T. Compound, manufactured by Sakura Finetek Japan Co., Ltd.), and thinly cutting the embedded specimen of human adrenal tissue to have a thickness of 7 μm had been pasted (stored at −80° C., hereinafter, referred to as human adrenal section) was used for experiment.
(§2) A solution of each of Compounds [^18F]100, [^18F]101, [^18F]102, and […], which had been obtained in Reference Example 2, Example 2, 4, or 6, and Compound [^123I]IMTO (reference compound) was dispensed into a vial, and the amount of radioactivity was measured by a radioisotope dose calibrator (CRC-15R, manufactured by Capintec, Inc.) The radioactive concentration of a solution that had been prepared by adding each solution obtained above to human plasma (hereinafter referred to as reaction mixture) was measured by using an autowell gamma system (ARC-7001, manufactured by Hitachi, Ltd.).
(§3) For preincubation, a human adrenal section was immersed in phosphate-buffered saline (PBS) at 37° C. for 5 minutes, and then immersed in human plasma at 37° C. for 5 minutes. Next, as a reaction step, the human adrenal section was immersed in the reaction mixture at 37° C. for 10 minutes. After that, the human adrenal section was washed with human plasma five times at 37° C. for 2 minutes, and then air-dried. Further, a piece of filter paper, which had been cut out into a circular shape and had been pasted on a slide glass, was impregnated with a known amount of the reaction mixture, and then air dried, and the resultant piece was used as a standard radiation source.
(§4) The air-dried human adrenal section and the air-dried standard radiation source were exposed to an imaging plate (BAS-SR2040, manufactured by Fujifilm Corporation) (IP sheet), and autoradiograms were obtained by a fluoro image analyzer (Typhoo FLA 7000 IP, manufactured by GE Healthcare Japan Corporation). A region of interest (ROI) was set in each of the lesion region and normal region obtained on the autoradiograms, and the radiation count was determined. The ROI was also set for the standard radiation source, and the radiation count was determined.
(§5) For the autoradiograms obtained for the human adrenal section, the radiation count (correction value) of each region (lesion region or normal region) was determined as in formula (1) as a correction value to the standard radiation source.
(§6) The binding ability of the compound according to the present invention (each of Compounds [^18F]101, [^18F]102, and [^18F]103) to each region (lesion region or normal region) was determined as in formulas (2) and (3) as the relative value in a case where the radiation count (correction value) in each region of ^[123I]IMTO (reference compound) was set to 1. Further, the lesion/normal ratio was determined as in formula (4).

[2] = Pharmacokinetic distribution experiment (PET, SUV of liver, kidney, spleen); format: in vivo, normal rats; conditions: FIG. 2; for radioactivity accumulation in tissues (the liver, kidney, and spleen) surrounding the adrenal glands: PET SUV at 60 minutes and 180 minutes after the administration; for high radioactivity accumulation that would be an obstacle in the adrenal gland imaging: liver, kidney, spleen, 60 and 180 minutes after the administration
Protocol: The compounds according to the present invention (Compounds [^18F]101, [^18F]102, and [^18F]103) were administered to three normal rats without anesthesia. Imaging data for 15 minutes under isoflurane anesthesia were collected at 60 minutes and 180 minutes after the administration. The imaging data were subjected to image reconstruction by a positron emission tomography (PET) device (instrument: eXplore VISTA, manufactured by GE Healthcare Japan Corporation), and then a volume of interest (VOI) was set in each of the liver, kidney, and spleen, and a standardized uptake value (SUV) of each tissue was determined as in formula (5).

[3] = test system: normal region in an adjacent part to the lesion region (human adrenal section); assay: In vitro autoradiography using human adrenal tumor: binding ability to normal region; conditions: relative to [123I]IMTO = 1, human plasma, 37° C., 10 minutes
Protocol: as §1, §2, §3, §4, §5, §6

Row | Compound | B2/B1, lesion/normal ratio ([1]; Sample 1) | B2, binding ability to a lesion region, ratio to reference compound ([1]; Sample 1) | B2/B1, lesion/normal ratio ([1]; Sample 2) | B2, binding ability to a lesion region, ratio to reference compound ([1]; Sample 2) | B2/B1, lesion/normal ratio ([1]; Sample 3) | B2, binding ability to a lesion region, ratio to reference compound ([1]; Sample 3) | B2/B1, lesion/normal ratio ([1]; Sample 4) | B2, binding ability to a lesion region, ratio to reference compound ([1]; Sample 4) | B2/B1, lesion/normal ratio ([1]; Sample 5) | B2, binding ability to a lesion region, ratio to reference compound ([1]; Sample 5) | B2/B1, lesion/normal ratio ([1]; Sample 6) | B2, binding ability to a lesion region, ratio to reference compound ([1]; Sample 6) | concentration shown at the lesion sites on autoradiograms (FIG. 1) [1] | radioactivity accumulation in tissues (the liver, kidney, and spleen) surrounding the adrenal glands [2] | high radioactivity accumulation that would be an obstacle in the adrenal gland imaging [2] | B1, binding ability to a normal region, ratio to reference compound ([3]; Sample 1) | B1, binding ability to a normal region, ratio to reference compound ([3]; Sample 2) | B1, binding ability to a normal region, ratio to reference compound ([3]; Sample 3) | B1, binding ability to a normal region, ratio to reference compound ([3]; Sample 4) | B1, binding ability to a normal region, ratio to reference compound ([3]; Sample 5) | other results
1 | Fc1cc2nc(-c3cncc(Cn4ccnc4)c3)n(CC[18F])c2cc1F [Compound [^18F]102, 5,6-difluoro-1-(2-[^18F]fluoroethyl)-2-[5-(imidazol-1-ylmethyl)pyridin-3-yl]benzimidazole] | 6.78 | 0.19 | 8.69 | 0.31 | 8.20 | 0.65 | 4.32 | 0.41 | 9.21 | 0.14 | 23.93 | 0.63 | higher concentration than that of Compound [^18F]100 | decreased over time | not observed | 0.01 | 0.03 | 0.05 | 0.05 | 0.01 | B1, binding ability to a normal region, ratio to reference compound ([3]; Sample 6): 0.03
2 | Fc1ccc2nc(-c3cncc(Cn4ccnc4)c3)n(CC[18F])c2c1 [Compound [^18F]101, 6-fluoro-1-(2-[^18F]fluoroethyl)-2-[5-(imidazol-1-ylmethyl)pyridin-3-yl]benzimidazole] | 14.44 | 0.19 | 19.66 | 0.24 | 8.44 | 0.32 | 8.28 | 0.21 | 14.94 | 0.13 | 37.80 | 0.45 | higher concentration than that of Compound [^18F]100 | decreased over time | not observed | 0.00 | 0.01 | 0.03 | 0.01 | 0.01 | B1, binding ability to a normal region, ratio to reference compound ([3]; Sample 6): 0.01
3 | N#Cc1cc2c(cc1F)nc(-c1cncc(Cn3ccnc3)c1)n2CC[18F] [Compound [^18F]103, 2-[5-(1H-imidazol-1-ylmethyl)pyridin-3-yl]-5-fluoro-1-(2-[^18F]fluoroethyl)-1H-benzo[d]imidazole-6-carbonitrile] | 4.57 | 0.23 | 12.05 | 0.46 | 2.68 | 0.79 | 2.03 | 0.33 | 5.17 | 0.29 | 15.42 | 1.09 | higher concentration than that of Compound [^18F]100 | decreased over time | not observed | 0.02 | 0.04 | 0.20 | 0.08 | 0.04 | B1, binding ability to a normal region, ratio to reference compound ([3]; Sample 6): 0.07
